What was measured:
Assay in all cases: relative viability (nuclei count vs DMSO), 5 days (fraction); higher = more cells survive
[1] = compound: CCn1c(-c2nonc2N)nc2c(C#CC(C)(C)O)ncc(OC[C@H]3CCCNC3)c21 + COc1cccc2cc(-c3nc([C@H]4CC[C@H](C(=O)O)CC4)n4ncnc(N)c34)[nH]c12 [OSI-027] (partner 0.5 µM)
In short: (§1)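 For relative viability, nuclei counts in treated wells were divided by those in vehicle wells. Lung cancer cell lines had been pin-tool dosed in 1536-well plates the day after seeding and cultured for 5 days, then fixed and stained in one step (final 0.05% Triton X-100, 1% formaldehyde, 1 ug/ml Hoechst) and imaged at 4×. Doses were one drug alone or a fixed anchor-drug dose plus five library-drug doses (not always all listed) in √10 steps, and values are duplicate-plate medians.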

[2] = compound: CCn1c(-c2nonc2N)nc2c(C#CC(C)(C)O)ncc(OC[C@H]3CCCNC3)c21 + COc1cc2c(Oc3ccc(NC(=O)C4(C(=O)Nc5ccc(F)cc5)CC4)cc3F)ccnc2cc1OCCCN1CCOCC1 [Foretinib] (partner 0.25 µM)
In short: as §1

[3] = compound: CCn1c(-c2nonc2N)nc2c(C#CC(C)(C)O)ncc(OC[C@H]3CCCNC3)c21 + CC(C)C[C@H](NC(=O)[C@H](Cc1ccccc1)NC(=O)c1cnccn1)B(O)O [Bortezomib] (partner 0.002 µM)
In short: as §1

[4] = compound: CCOC1=CC=CC=C1N=NC2=C(NN(C2=O)C3=NC(=CS3)C4=CC=CC=C4)C [BAM7] + C[C@]1(O)C[C@@H](c2nc(-c3ccc4ccc(-c5ccccc5)nc4c3)c3c(N)nccn32)C1 [Linsitinib] (partner 1 µM)
In short: as §1

Q: Which relative viability ([1]; first compound 0.01 µM) does the source give for UMC-11 here?
A: 0.512

Q: And the relative viability ([1]; first compound 0.03162 µM)?
A: 0.489

Q: What about the relative viability ([1]; first compound 0.1 µM) of the same cell line?
A: 0.515

Q: And the relative viability ([1]; first compound 0.3162 µM)?
A: 0.423

Q: And the relative viability ([1]; first compound 1 µM)?
A: 0.496

Q: And the relative viability ([2]; first compound 0.01 µM)?
A: 1.01

Q: And the relative viability ([2]; first compound 0.03162 µM)?
A: 1.06

Q: And the relative viability ([2]; first compound 0.1 µM)?
A: 1.01

Q: And the relative viability ([2]; first compound 0.3162 µM)?
A: 0.931

Q: And the relative viability ([2]; first compound 1 µM)?
A: 1.04

Q: And the relative viability ([3]; first compound 0.01 µM)?
A: 0.676

Q: What about the relative viability ([3]; first compound 0.03162 µM) of the same cell line?
A: 0.905

Q: And the relative viability ([3]; first compound 0.1 µM)?
A: 0.833

Q: What about the relative viability ([3]; first compound 0.3162 µM) of the same cell line?
A: 0.48

Q: And the relative viability ([3]; first compound 1 µM)?
A: 0.661

Q: And the relative viability ([4]; first compound 0.5 µM)?
A: 1.12

Q: What about the relative viability ([4]; first compound 5 µM) of the same cell line?
A: 1.05

Q: And the relative viability ([4]; first compound 15.81 µM)?
A: 1.07

Q: And the relative viability ([4]; first compound 50 µM)?
A: 1.09

Source: the supplement of paper PMC10307832
